# Results: patent US20070021357A1, “Treatment of inflammatory conditions” (Dynamis Therapeutics, Inc., priority 2005, published 2007)
# Several values for one entry are separate records, joined by “and”; a condition that tells them apart may be missing. Identical values can stand only once.
# Key:
# [1] = target: T1, Calf skin collagen Type I (Bos taurus, UniProt P02453+P02465); assay: 3DG-induced collagen crosslinking, CNBr digestion and SDS-PAGE; assay type: biochemical; conditions: 37° C., 24 hours
# T1 construct: Calf skin collagen Type I (1.3 mg; Sigma); purchased Sigma; host or cells: calf skin
# T1 sequence (P02453 162-1217 limits assumed): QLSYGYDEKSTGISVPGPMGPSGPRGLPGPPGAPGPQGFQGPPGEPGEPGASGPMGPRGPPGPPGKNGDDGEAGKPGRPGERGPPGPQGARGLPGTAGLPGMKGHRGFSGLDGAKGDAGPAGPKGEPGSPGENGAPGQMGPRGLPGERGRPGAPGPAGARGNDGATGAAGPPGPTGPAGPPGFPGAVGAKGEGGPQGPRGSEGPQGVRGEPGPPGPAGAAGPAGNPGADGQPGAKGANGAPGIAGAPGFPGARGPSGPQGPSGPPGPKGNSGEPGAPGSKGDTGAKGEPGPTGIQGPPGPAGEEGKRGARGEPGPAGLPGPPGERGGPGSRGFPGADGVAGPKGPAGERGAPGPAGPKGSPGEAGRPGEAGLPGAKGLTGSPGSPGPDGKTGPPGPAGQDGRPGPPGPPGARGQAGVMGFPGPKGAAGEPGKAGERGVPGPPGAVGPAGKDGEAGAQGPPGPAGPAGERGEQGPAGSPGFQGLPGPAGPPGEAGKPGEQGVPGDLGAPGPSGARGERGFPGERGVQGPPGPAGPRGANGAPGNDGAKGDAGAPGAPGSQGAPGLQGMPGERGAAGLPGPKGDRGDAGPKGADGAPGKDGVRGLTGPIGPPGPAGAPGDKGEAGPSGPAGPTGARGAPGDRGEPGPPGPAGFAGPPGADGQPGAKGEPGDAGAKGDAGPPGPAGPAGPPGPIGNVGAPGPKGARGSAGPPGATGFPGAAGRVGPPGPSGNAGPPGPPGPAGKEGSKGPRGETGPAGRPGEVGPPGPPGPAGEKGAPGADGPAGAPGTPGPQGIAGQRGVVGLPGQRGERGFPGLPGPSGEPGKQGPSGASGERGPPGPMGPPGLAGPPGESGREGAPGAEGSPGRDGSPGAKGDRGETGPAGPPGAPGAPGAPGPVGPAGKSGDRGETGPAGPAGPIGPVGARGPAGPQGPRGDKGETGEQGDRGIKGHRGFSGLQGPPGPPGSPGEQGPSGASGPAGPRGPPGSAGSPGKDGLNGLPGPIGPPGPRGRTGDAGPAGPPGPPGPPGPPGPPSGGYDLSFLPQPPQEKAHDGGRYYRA
# T1 sequence (P02465 80-1117 limits assumed): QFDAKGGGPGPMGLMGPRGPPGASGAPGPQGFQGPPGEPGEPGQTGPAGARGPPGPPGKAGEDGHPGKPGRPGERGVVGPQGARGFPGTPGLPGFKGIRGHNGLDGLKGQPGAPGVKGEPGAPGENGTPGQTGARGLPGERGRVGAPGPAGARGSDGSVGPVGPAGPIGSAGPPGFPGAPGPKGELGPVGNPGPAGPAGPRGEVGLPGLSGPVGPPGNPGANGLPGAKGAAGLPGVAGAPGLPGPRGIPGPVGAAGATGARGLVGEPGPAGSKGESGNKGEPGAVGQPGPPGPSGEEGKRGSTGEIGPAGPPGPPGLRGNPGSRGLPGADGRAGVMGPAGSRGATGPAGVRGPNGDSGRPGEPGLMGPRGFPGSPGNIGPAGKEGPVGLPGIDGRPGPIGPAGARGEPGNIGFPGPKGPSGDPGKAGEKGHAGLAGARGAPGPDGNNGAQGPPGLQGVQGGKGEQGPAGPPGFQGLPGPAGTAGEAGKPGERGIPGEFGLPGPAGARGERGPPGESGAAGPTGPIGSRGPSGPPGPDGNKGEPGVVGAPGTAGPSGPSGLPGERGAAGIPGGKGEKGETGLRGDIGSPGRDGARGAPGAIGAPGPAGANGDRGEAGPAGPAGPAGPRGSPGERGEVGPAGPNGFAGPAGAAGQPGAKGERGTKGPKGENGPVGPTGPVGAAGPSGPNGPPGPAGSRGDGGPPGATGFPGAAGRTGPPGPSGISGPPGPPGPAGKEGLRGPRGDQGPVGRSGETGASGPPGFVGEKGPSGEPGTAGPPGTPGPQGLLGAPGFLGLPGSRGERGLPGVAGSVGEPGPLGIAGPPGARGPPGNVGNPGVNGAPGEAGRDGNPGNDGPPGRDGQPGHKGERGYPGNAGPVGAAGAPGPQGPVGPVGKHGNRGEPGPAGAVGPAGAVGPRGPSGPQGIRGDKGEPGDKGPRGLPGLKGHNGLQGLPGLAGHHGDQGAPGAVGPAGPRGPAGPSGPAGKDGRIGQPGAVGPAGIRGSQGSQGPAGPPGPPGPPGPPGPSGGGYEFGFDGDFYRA
# Method: Collagen type I was treated with 3DG in the presence or absence of arginine. The samples were subjected to cyanogen bromide (CNBr) digestion, electrophoresed on a 16.5% SDS Tris-tricine gel, and then the gels were processed using silver stain techniques to visualize the proteins. Lane 1 contains molecular weight marker standards. Lanes 2 and 5 contain 10 and 20 μl of the collagen mixture following CNBr digestion. Lanes 3 and 6 contain the collagen mixture treated with 3DG and then digested with CNBr, and loaded at 10 and 20 μl, respectively. Lanes 4 and 7 contain the mixture of collagen incubated with 5 mM 3DG and 10 mM arginine and then digested with CNBr, and loaded at 10 and 20 μl, respectively.
# Collagen I was incubated in the presence or absence of 3DG in vitro. Calf skin collagen Type I (1.3 mg; Sigma) was incubated in 20 mM Na-phosphate buffer, pH 7.25, either alone, with 5 mM 3DG, or with 5 mM 3DG plus 10 mM arginine, in a total volume of 1 ml at 37° C. for 24 hours and then frozen and lyophilized. The residue was dissolved in 0.5 ml of 70% formic acid and cyanogen bromide was added (20:1, w/w). This solution was incubated at 30° C. for 18 hours. […] The extent of collagen crosslinking was determined by applying equal volumes of sample and analyzing by SDS-PAGE electrophoresis (16.5% Tris-tricine gel), as determined by the effects of 3DG on the migration of collagen.
# [2] = test system: 3DG; assay: Plasma 3DG levels in diabetic and non-diabetic rats; assay type: in vivo; conditions: 50 mg/kg body weight injections in saline, within one week
# Method: A cohort of twelve diabetic rats was divided into two groups of six. The first group received saline-only injections, and the second received injections of 3-O-methyl sorbitollysine (50 mg/kg body weight) in saline solution. The same procedure was conducted on a cohort of twelve non-diabetic rats.
# [3] = Locus of 3-O-methyl sorbitollysine uptake in vivo (tissues, urine, plasma); set-up: species or system rats
# Method: […] Urine was collected for 3 hours, after which the rats were sacrificed. The tissues to be analyzed were removed and freeze clamped in liquid nitrogen. Perchloric acid extracts of the tissues were used for metabolite analysis. The tissues examined were taken from the brain, heart, muscle, sciatic nerve, spleen, pancreas, liver, and kidney. Plasma was also analyzed.
# [4] = test system: STZ-diabetic rats; assay: Skin elasticity measurement (vacuum pull) in STZ-diabetic and normal rats; assay type: in vivo; conditions: 50 mg/kg daily, eight weeks, p=0.39
# Method: Experiments were performed to determine the effects of DYN 12 on the loss of skin elasticity associated with diabetes. To this end, two groups of STZ-diabetic rats and two groups of normal rats were subjected to treatment with DYN 12 or saline. One group of STZ-diabetic rats (n=9) received daily subcutaneous injections of DYN 12 at 50 mg/kg for eight weeks, as did one group of normal rats (n=6). A group of control diabetic rats (n=10) and a group of normal rats (n=6) received saline instead of DYN 12. One rat was removed from the diabetic DYN 12 group after 2 weeks because its blood glucose readings were inconsistent (too low) with other diabetic rats.
# A non-invasive procedure based on CyberDERM, Inc. technology utilizing a skin elasticity measurement device was used to test the effects of DYN 12 treatment on skin elasticity. The procedure provides for non-invasive measurement of skin elasticity based upon the amount of vacuum pull required to displace skin. A suction cup probe is adhered to an area of shaved skin in order to form an airtight seal. Then, a vacuum is applied to the area of the skin inside the suction cup until the skin is displaced past a sensor located inside the probe. Accordingly, the more pressure that is required to displace the skin, the less elastic the skin is.
# [5] = test system: diabetic rats; assay: Skin elasticity/muscle strength measurement on alert, restrained rats; assay type: in vivo; conditions: preliminary data
# Method: FIG. 15 is graphic illustration of the effects of DYN 12 (3-O-methylsorbitollysine) treatment on skin elasticity. Diabetic or normal rats were treated with DYN 12 (50 mg/kg daily) or saline for eight weeks and then subjected to skin elasticity tests. The four groups used included diabetic controls (saline injection; solid black bar), diabetics treated with DYN 12 (open bar), normal animal controls (saline injections; stippled bar), and normal animals treated with DYN 12 (cross-hatched bar). Data are expressed in kilopascals (kPA) and are shown as averages of the results obtained with each particular group of test subjects. Measurements were taken on the hind leg of the test subjects and were taken on an alert animal restrained by a technician.
# Skin elasticity measurements were also taken on the test subjects as described above, but without sedating the test animals before measurement. FIG. 15 illustrates skin elasticity measurements taken on the hind leg of the test subjects while the subjects were alert and being restrained by a technician.
# In these experiments, the animals were fiercely fighting restraint and the results are different.
# [6] = test system: 3DG; conditions: Kappler et al., 2002; cited from earlier work
# [7] = test system: kinase activity in the kidney cortex; assay: Radioactive assay of FL3P production from FL and ATP; assay type: biochemical, pig; conditions: 10 mM FL, 10 mM γ33P-ATP, 30 minutes at 37° C., pH 7.5
# Method: A 3 g sample of fresh pig kidney cortex was homogenized in 9 ml of 50 mM Tris.HCl containing 150 mM KCl, 5 mM DTT, 15 mM MgCl2, pH 7.5. This was centrifuged at 10,000 g for 30 minutes, and then the supernatant was centrifuged at 100,000 g for 60 minutes. Ammonium sulfate was added to 60% saturation. After 1 hour at 4° C. the precipitate was collected by centrifugation and dissolved in 5 ml. of original buffer. A 2 ml aliquot of this solution was incubated with 10 mM ATP and 10 mM of FL (prepared as in Example 1, above) for 2 hours at 37° C. The reaction was quenched with 300 μl of perchloric acid, centrifuged to remove protein, and desalted on a column of Sephadex G 10 (5×10 cm). ^31P NMR analysis of the reaction mixture detected formation of FL3P.
# Based on the proof of kinase activity thus obtained, a radioactive assay was developed. This assay was designed to take advantage of the binding to Dow-50 cation exchange resin by FL3P. This characteristic of FL3P was discovered during efforts to isolate it. […] A 0.5 ml volume of supernatant was pipetted into 10 ml of Ecoscint A and counted. […] The relationship between rates of FL3P production and enzyme concentration was determined using triplicate determinations with 1, 2, and 4 mg of protein for 30 minutes at 37° C. Blanks run concurrently without FL were subtracted and the data recorded. […]
# [8] = test system: amadorase; assay: Amadorase-dependent production of 3DG in vitro; assay type: biochemical; conditions: FL 2.6 mM, after 24 hours
# [9] = set-up: species or system human; conditions: in vivo
# Method: 260 g of casein, 120 g of glucose and 720 ml of water were mixed to give a homogeneous mixture. This mixture was transferred to a metal plate and heated at 65° C. for 68 hours. The resulting cake was then pulverized to a coarse powder.
# Volunteers spent two days on a fructoselysine-free diet and then consumed 22.5 g of the food product prepared as described herein, thus effectively receiving a 2 gram dose of fructoselysine. Urine was collected at 2 hour intervals for 14 hours and a final collection was made at 24 hours.
# FL was measured by HPLC with a Waters 996 diode Array using a Waters C18 Free Amino Acid column at 46° C. and a gradient elution system of acetonitrile-methyl alcohol-water (45:15:40) into acetonitrile-sodium acetate-water (6:2:92) at 1 ml/min. Quantitation employed an internal standard of meglumine.
# 3DF was measured by HPLC after deionization of the sample. Analyses were performed on a Dionex DX-500 HPLC system employing a PA1 column (Dionex) and eluting with 32 mM sodium hydroxide at 1 ml/min. Quantitation was performed from standard curves obtained daily with synthetic 3DF.
# 3DG was measured by GC-MS after deionization of the sample. 3DG was derivatized with a 10-fold excess of diaminonaphthalene in PBS. […] Quantitation of 3DG employed selected ion monitoring using an internal standard of U-13C-3DG.
# [10] = test system: mouse mesangial cells; assay: Type IV collagen production in kidney cells in vitro; assay type: cell-based
# Method: Type IV collagen production was measured in mouse mesangial cells. Controls (grown with […]) produced 300 ng of Type IV collagen per 10,000 cells, whereas fructoselysine treated cells (5 or 10 mM fructoselysine with 10 mM glucose) produced 560 and 1100 ng/10,000 cells.
# [11] = test system: 3-deoxyglucosone; assay: Reduction of urinary and plasma 3-deoxyglucosone in rats after intraperitoneal injection; assay type: in vivo; conditions: 10 μmols intraperitoneal, plasma at end of three hours vs before
# Method: Urine was collected from six rats for three hours. A plasma sample was also obtained. The animals were then given 10 μmols of either sorbitollysine, mannitollysine, or galactitollysine by intraperitoneal injection. Urine was collected for another three hours, and a plasma sample obtained at the end of the three hours.
# a. 3-deoxyglucosone was measured in the samples, as described in Example 5, below, and variable volumes were normalized to creatinine. The average reduction of urinary 3-deoxyglucosone was 50% by sorbitollysine, 35% by mannitollysine and 35% by galactitollysine. Plasma 3-deoxyglucosone was reduced 40% by sorbitollysine, 58% by mannitollysine and 50% by galactitollysine.
# Three rats were treated as in b), immediately above, except meglumine (100 μmols) was injected intraperitoneally instead of the above-mentioned lysine derivatives. Three hours after the injection the average 3-deoxyglucosone concentrations in the urine were decreased 42%.
# 3DG was measured by GC-MS after deionization of the sample. 3DG was derivatized with a 10-fold excess of diaminonaphthalene in PBS. Ethyl acetate extraction gave a salt free fraction which was converted to the trimethyl silyl ethers with Tri-Sil (Pierce). Analysis was performed on a Hewlett-Packard 5890 selected ion monitoring GC-MS system. GC was performed on a fused silica capillary column (DB-5.25 mx.25 mm) using the following temperature program: injector port 250° C., initial column temperature 150° C. which is held for 1 minute, then increased to 290° C. at 16° C./minute and held for 15 minutes. Quantitation of 3DG employed selected ion monitoring using an internal standard of U-13C-3DG.
# [12] = test system: 3DG; conditions: disclosed in WO 98/33492; cited from earlier work
smiles,measurement,setting,value
"O=CC(=O)C[C@H](O)[C@H](O)CO [3DG, 3-deoxyglucosone, reference compound]",collagen crosslinking (migration of collagen on gel),[1]; collagen I with 5 mM 3DG,migrate as if it had a higher molecular weight
"COC(C(O)CNCCCCC(N)C(=O)O)C(O)C(O)CO (centres unmarked) [DYN 12, 3-O-methylsorbitollysine]",plasma 3DG levels,[2]; Diabetic rats,0.44 ± 0.10 µM
same,plasma 3DG levels,[2]; Non-diabetic rats,0.13 ± 0.02 µM
same,only tissue extract found to contain the compound,"[3]; brain, heart, muscle, sciatic nerve, spleen, pancreas, liver, kidney examined 3 hours after i.p. injection",kidney
same,total 3OMeSL recovered,"[3]; individual rats, urine plus kidneys, 13500 nmols injected, listed as 3OMeSL, in nmol",12355 and 5235 and 13011 and 8257 and 7151 and 7193
same,% 3OMeSL recovered,"[3]; individual rats, urine plus kidneys, of injected dose, listed as 3OMeSL",91.5% and 38.8% and 96.4% and 61.2% and 53.0% and 53.3%
same,elasticity value in treated diabetic rats compared with non-diabetic rats treated with saline,[4],not statistically different
same,"muscle strength measured while alert, vs diabetic rats not so treated",[5],stronger muscle strength
same,3DG levels in the plasma of diabetic and non-diabetic animals,[6],reduces 3DG levels
"NC(CCCCNCC(=O)C(O)C(O)C(O)CO)C(=O)O (centres unmarked) [FL, 1-deoxy-1-(ε-aminolysine)-fructose]",approximate FL3P synthesis rate,[7],~20 nmols/hr/mg protein
same,3DG,"[8]; Reaction 1: Amadorase +, ATP +",1.58 mM
same,FL3P,"[8]; Reaction 1: Amadorase +, ATP +",0.2 mM
same,3DG,"[8]; Reaction 2: Amadorase +, ATP −",0.08 mM
same,FL3P,"[8]; Reaction 2: Amadorase +, ATP −",0 mM
same,3DG,"[8]; Reaction 3: Amadorase −, ATP +",0.09 mM
same,FL3P,"[8]; Reaction 3: Amadorase −, ATP +",0 mM
same,3DG,"[8]; Reaction 4: Amadorase −, ATP −",0.08 mM
same,FL3P,"[8]; Reaction 4: Amadorase −, ATP −",0 mM
same,time of peak urinary 3DF excretion after the bolus,[9],about 4 hours
same,Type IV collagen produced,[10]; 5 mM fructoselysine with 10 mM glucose,"560 ng/10,000 cells"
same,Type IV collagen produced,[10]; 10 mM fructoselysine with 10 mM glucose,"1100 ng/10,000 cells"
N=C(N)NCCC[C@H](N)C(=O)O [arginine],inhibition of 3DG induced collagen crosslinking (high molecular weight bands on gel),[1]; collagen I with 5 mM 3DG plus 10 mM arginine,fewer high molecular bands
N[C@@H](CCCCNC[C@H](O)[C@@H](O)[C@@H](O)[C@H](O)CO)C(=O)O [galactitollysine],Plasma 3-deoxyglucosone reduced,[11],50%
same,urinary or plasma 3DG,[12],can be reduced
N[C@@H](CCCCNC[C@@H](O)[C@@H](O)[C@H](O)[C@H](O)CO)C(=O)O [mannitollysine],Plasma 3-deoxyglucosone reduced,[11],58%
same,urinary or plasma 3DG,[12],can be reduced
"CNC[C@H](O)[C@@H](O)[C@H](O)[C@H](O)CO [meglumine, reference compound]",urinary or plasma 3DG,[12],can be reduced
N[C@@H](CCCCNC[C@H](O)[C@@H](O)[C@H](O)[C@H](O)CO)C(=O)O [sorbitollysine],Plasma 3-deoxyglucosone reduced,[11],40%
same,urinary or plasma 3DG,[12],can be reduced
